Ends that are not written are not given here.
B1: rLG3: recombinant His6-tagged human laminin α2 chain LG3 domain, amino acids 2537 to 2745 (protein, listed as Homo sapiens)
chain: VELSPVPIDVGTEINLSFSTKNESGIILLGSGGTPAPPRRKRRQTGQAYYVILLNRGRLEVHLSTGARTMRKIVIRPEPNLFHDGREHSVHVERTRGIFTVQVDENRRYMQNLTVEQPIEVKKLFVGGAPPEFQPSPLRNIPPFEGCIWNLVINSVPMDFARPVSFKNADIGRCAHQKLREDEDGAAPAEIVIQPEPVPTPAFPTPTPV
modifications: His6 tag

Key:
Schwann cells [1] = test: Schwann cell spreading on coated plates; assay type: cell-based, human; conditions: plates coated with 62.5 μg/mL peptide, 3 h
Protocol: Schwann cells, nerve cells used in the present invention, were obtained from human skin-derived precursors by differentiating the cells toward the Schwann cell lineage for two weeks and identified by immunocytochemical markers specific to Schwann cells, such as S100D and glial fibrillary acidic protein (GFAP) (Biernaskie, J. A. et al., Nat. Protoc., 2006).
Schwann cells were cultured on plates which were coated in the same way for 3 h in serum-free medium and the cell spreading of Schwann cells was observed.

integrin β1 = target: T1, integrin β1 (Rattus norvegicus, UniProt P49134); test: Immunoprecipitation of PKCα, PKCδ and FAK with His6-rLG3 or integrin β1; assay type: cell-based; conditions: PC12 cells on coated dishes, 30 min
T1 construct: whether PKCα and -δ exist as associated complexes in PC12 cells seeded on laminin-, rLG3-, and Ln2-LG3-P2-coated dishes; endogenous in cells; host or cells: PC12 cells
T1 sequence (P49134 21-799): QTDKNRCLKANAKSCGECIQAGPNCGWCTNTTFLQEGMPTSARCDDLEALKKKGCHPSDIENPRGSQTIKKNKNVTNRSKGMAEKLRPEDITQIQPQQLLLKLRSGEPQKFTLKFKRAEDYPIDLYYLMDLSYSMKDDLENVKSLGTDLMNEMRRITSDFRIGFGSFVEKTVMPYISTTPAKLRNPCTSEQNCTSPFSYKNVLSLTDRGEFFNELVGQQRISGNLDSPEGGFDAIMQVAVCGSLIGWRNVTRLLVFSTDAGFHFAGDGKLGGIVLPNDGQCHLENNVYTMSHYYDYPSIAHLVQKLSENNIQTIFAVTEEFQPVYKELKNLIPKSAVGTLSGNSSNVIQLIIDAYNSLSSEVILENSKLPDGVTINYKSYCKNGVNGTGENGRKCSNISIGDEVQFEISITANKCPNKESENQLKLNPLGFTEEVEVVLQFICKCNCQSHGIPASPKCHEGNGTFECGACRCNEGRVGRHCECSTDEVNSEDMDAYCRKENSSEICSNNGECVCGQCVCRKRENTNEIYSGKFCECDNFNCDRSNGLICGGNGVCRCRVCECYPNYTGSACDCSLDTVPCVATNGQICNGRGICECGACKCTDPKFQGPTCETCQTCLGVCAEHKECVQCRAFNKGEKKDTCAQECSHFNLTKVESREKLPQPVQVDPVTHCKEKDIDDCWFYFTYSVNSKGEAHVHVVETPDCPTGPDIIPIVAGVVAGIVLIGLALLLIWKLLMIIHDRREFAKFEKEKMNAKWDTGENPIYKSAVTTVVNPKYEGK
Protocol: Specifically, for immunoprecipitation, PC12 cells were starved for 12 h with RPMI 1640 medium containing 0.1% FBS. Cells were detached and resuspended in serum-free medium with 0.1% BSA. PC12 cells (4×10^6 cells/100-mm dish) were seeded on laminin (5 μg/mL)-, rLG3 (25 μg/mL)-, or Ln2-LG3-P2 (25 μg/well)-coated dishes and allowed to attach for 30 min at 37° C. After incubation, cells were washed with ice-cold PBS, lysed with RIPA buffer containing a protease inhibitor cocktail. The lysates were centrifuged and the supernatants were preincubated with 50 μL of immobilized protein G beads (Upstate Biotechnology Inc.) for 1 h at 4° C. to remove nonspecific binding. The supernatants were incubated with anti-His6 (Roche, Mannheim, Germany), anti-integrin (Santa Cruz Biotechnology), or anti-PKCδ (Santa Cruz Biotechnology) antibodies for 2 h at 4° C. The immunocomplexes were precipitated with immobilized protein G beads for 12 h at 4° C. After centrifugation, beads carrying the immune complexes were washed four times with RIPA buffer. Immunoprecipitates were resuspended in SDS sample buffer, boiled for 5 min, and analysed by Western blotting.

PC12 cells [2] = test: Inhibition of cell spreading on rLG3 by peptide pretreatment; assay type: cell-based, rat; conditions: PC12 cells pretreated with 500 μg/mL peptide, rLG3 25 μg/mL, 3 h
Protocol: PC12 cells were pretreated with 500 μg/mL of Ln2-LG3-P1, Ln2-LG3-P2, Ln2-LG3-P3, Ln2-LG3-P4, Ln2-LG3-P5 and SP (scramble peptide) (SEQ ID NO:20) for 10 min at room temperature and then cultured on plates coated with rLG3 (25 μg/mL) in serum-free medium. To observe cell adhesion, PC12 cells were incubated on the coated plates for 1 h and to observe cell spreading, PC12 cells were incubated on the coated plates for 3 h. To observe cell migration, cells were seed into the upper chamber of transwell filters coated with rLG3 (25 μg/mL) and cultured for 24 h. Cell migration was quantified by counting the number of cells that had migrated through the filter.

[3] = tested on: normal human epidermal keratinocytes (NHEK); test: Cell adhesion to Ln2-LG3-P2-coated plates, NHEK; assay type: cell-based; conditions: NHEK at passage 2, 62.5 μg/mL, 1 h
Protocol: Normal human epidermal keratinocytes (NHEK) isolated from epidermal tissue of normal human epidermal skin were cultured in keratinocyte growth medium (KGM, manufactured by Clonetics, San Diego, Calif.). Cells at passage 2 were used for the following experiments.

[4] = tested on: normal human dermal fibroblasts (NHDF); test: Cell adhesion to Ln2-LG3-P2-coated plates, NHDF; assay type: cell-based; conditions: NHDF at passage 4, 62.5 μg/mL, 1 h
Protocol: Normal human dermal fibroblasts (NHDF) isolated from hypodermal tissue of normal human skin were cultured in DMEM containing antibiotics and 10% FBS. Cells at passage 4 were used for the following experiments.

NIH/3T3 cells = test: Cell adhesion to Ln2-LG3-P2-coated plates, NIH/3T3; assay type: cell-based, mouse; conditions: 62.5 μg/mL, 1 h
Text: The mouse embryo fibroblast cell line NIH/3T3 was purchased from the American Type Culture Collection (Manassas, Va.) and cultured in Dulbecco's modified Eagle's medium (DMEM) containing 10% FBS.

PC12 cells [5] = test: Immunostaining of actin stress fibers and focal adhesions; assay type: cell-based, rat; conditions: PC12 cells on coated chamber slides, 3 h, serum-free
Protocol: Specifically, for immunostaining, PC12 cells were incubated on Lab-Tek chamber slides (Nalge Nunc International, Rochester, N.Y.) coated with laminin (5 μg/mL), rLG domain proteins (25 μg/mL), or Scrambled peptide (SP) (25 μg/well) in serum-free medium for 3 h at 37° C. Lab-Tek chamber slides were coated with BSA for the control. After rinsing with PBS, PC12 cells were fixed with 3.7% formalin for 20 min and permeabilized with 0.5% Triton X-100 for 5 min. PC12 cells were incubated with primary antibodies for 12 h at 4° C. The primary antibodies used were 1:500 anti-vinculin (Sigma-Aldrich 9131), or 1:300 rhodamin-phalloidin (Invitrogen R154) antibodies. After rinsing with PBS, PC12 cells were immunostained with FITC-conjugated anti-mouse IgG antibody (Jackson ImmunoResearch Laboratories, West Grove, Pa.) or rhodamin-conjugated anti-mouse IgG antibody (Santa Cruz Biotechnology) for 1 h at room temperature. After being washed three times with PBS, the stained PC12 cells were mounted and photographed using a confocal laser scanning microscope (FV300; Olympus, Japan).

Schwann cells [6] = test: Schwann cell adhesion on coated plates; assay type: cell-based, human; conditions: plates coated with 62.5 μg/mL peptide, 1 h, serum-free
[7] = tested on: normal human oral keratinocytes (NHOK); test: Cell adhesion to Ln2-LG3-P2-coated plates, NHOK; assay type: cell-based; conditions: NHOK at passage 2, 62.5 μg/mL, 1 h
Protocol: Normal human oral keratinocytes (NHOK) isolated from epidermal tissue of human gingiva were cultured in KGM (by Clonetics, San Diego, Calif.). Cells at passage 2 were used for the following experiments.

CV-1 cells = test: Cell adhesion to Ln2-LG3-P2-coated plates, CV-1; assay type: cell-based, African green monkey; conditions: 62.5 μg/mL, 1 h
Text: The normal African green monkey kidney fibroblast cell line CV-1 was purchased from the American Type Culture Collection (Manassas, Va.) and cultured in DMEM containing 10% FBS.

PC12 cells [8] = test: Neurite outgrowth assay; assay type: cell-based, rat; conditions: PC12 cells on coated plates, serum-free, 24 h + 72 h
Protocol: Laminin, rLG domain protein, and the peptide were coated onto plates and cells were seeded on the plates in serum-free medium and incubated for 24 h. After changing with serum-free medium again, cells were further cultured for 72 h and neurite outgrowth was examined.

| Molecule | Schwann cell spreading (Schwann cells [1]) | reduction of Schwann cell spreading compared to laminin (Schwann cells [1]; laminin 5 μg/mL) | proteins in integrin β1 immunoprecipitates (integrin β1) | inhibition of cell spreading to rLG3 protein (PC12 cells [2]) | cell adhesion activity [3] | cell adhesion activity [4] | cell adhesion activity (NIH/3T3 cells) | actin stress fiber formation and focal adhesions (PC12 cells [5]) | cell spreading (immunostaining) (PC12 cells [5]) | Schwann cell adhesion (Schwann cells [6]) | cell adhesion activity [7] | cell adhesion activity (CV-1 cells) | proteins in anti-His6 immunoprecipitates (integrin β1) | neurite outgrowth (PC12 cells [8]) |
| --- | --- | --- | --- | --- | --- | --- | --- | --- | --- | --- | --- | --- | --- | --- |
| RNIPPFEGCIWN (RNIPPFEGCIWN-NH2; listed as Homo sapiens) [Ln2-LG3-P2, 12-mer peptide, position 2675 to 2686 in human laminin α2 chain] | substantially higher spreading than BSA or scrambled peptide | approximately 50% | PKCα, PKCδ, and FAK were also observed | inhibited cell spreading and migration | strong cell adhesion activity | strong cell adhesion activity | strong cell adhesion activity | formed stress fiber formation, and focal adhesions but to a lesser degree than those on laminin | spread well | strong effect | strong cell adhesion activity | strong cell adhesion activity | – | – |
| laminin [reference compound] | – | – | PKCα, PKCδ, and FAK were also observed | – | – | – | – | formed actin stress fibers and focal adhesions | spread very well | – | – | – | – | – |
| B1 | – | – | PKCα, PKCδ, and FAK were also observed | – | – | – | – | formed stress fiber formation, and focal adhesions but to a lesser degree than those on laminin | spread well | – | – | – | PKCα, PKCδ, and FAK were observed | supports cell adhesion, spreading, migration, and neurite outgrowth |

From US9314510B2, “Human laminin α2 chain LG3 domain and active peptides promoting cell adhesion, spreading, migration, and neurite outgrowth” (SNU R&DB Foundation, priority 2011, dated 2016)
